Experimental data from patent US12466803B2 (priority 2021, dated 2025).

Experiments:
obese ZSF1 rats = conditions: mean±SD
[1] = test system: phospho (S293) BCKDHA in human skeletal myocytes; assay: Phospho BCKDHA Alpha Surefire Cell Assay; assay type: cell-based; conditions: Homo sapiens, 1 h, 60 minutes with compound, geometric mean

SMILES | IC50 [1] [nM] | other results
O=C(O)c1sc2cc(Cl)ccc2c1Cl [BT2] |  | kidney weights (obese ZSF1 rats; diet containing 1.36 g BT2/kg, after 4 additional weeks (8 weeks) of treatment): 2.09 ± 0.1 g; urine protein normalized to creatinine (obese ZSF1 rats; diet containing 1.36 g BT2/kg, after 4 weeks of treatment, BCA assay): 55.4±7.2 mg protein/mg creatinine; urine produced in 5 hour urine collection (obese ZSF1 rats; diet containing 1.36 g BT2/kg, after 4 weeks of treatment): 4.4 ± 2.7 mL; diabetic nephropathy score (obese ZSF1 rats; histology graded on a scale of 0-4, after 8 weeks of BT2 diet): 2.9±0.8
O=C(O)c1sc2cc(F)ccc2c1-c1cc(F)c(F)c(F)c1F [Example 109, 6-fluoro-3-(2,3,4,5-tetrafluorophenyl)-1-benzothiophene-2-carboxylic acid] | 600 | 
CCCOc1ccc(-c2c(C(=O)O)sc3cc(F)ccc23)c(F)c1F [Example 39, 3-(2,3-difluoro-4-propoxyphenyl)-6-fluoro-1-benzothiophene-2-carboxylic acid] | > 60000 | 
O=C(O)c1sc2cc(F)ccc2c1-c1cc(F)c(F)c(Cl)c1F [Example 24, 3-(3-Chloro-2,4,5-trifluorophenyl)-6-fluoro-1-benzothiophene-2-carboxylic acid] | 400 | 
CCc1c(F)ccc(-c2c(C(=O)O)sc3cc(F)ccc23)c1F [Example 86, 3-(3-ethyl-2,4-difluorophenyl)-6-fluoro-1-benzothiophene-2-carboxylic acid] | 310 | 
CCc1c(F)c(F)cc(-c2c(C(=O)O)sc3cc(Cl)ccc23)c1F [Example 134, 6-chloro-3-(3-ethyl-2,4,5-trifluorophenyl)-1-benzothiophene-2-carboxylic acid] | 80 | 
O=C(O)c1sc2cc(F)ccc2c1-c1ccc2c(c1)CCCO2 [Example 28, 3-(3,4-dihydro-2H-1-benzopyran-6-yl)-6-fluoro-1-benzothiophene-2-carboxylic acid] | 4900 | 
Cc1c(F)ccc(-c2c(C(=O)O)sc3cc(F)ccc23)c1F [Example 117, 3-(2,4-difluoro-3-methylphenyl)-6-fluoro-1-benzothiophene-2-carboxylic acid] | 120 | 
COc1cccc(-c2c(C(=O)O)sc3ccccc23)c1F [Example 26, 3-(2-fluoro-3-methoxyphenyl)-1-benzothiophene-2-carboxylic acid] | 5500 | 
